US10577363B2, “Substituted piperidine compounds” (EPIZYME, INC., priority 2014, dated 2020)

Experiments:
SMYD3 [1] = target: T1, SMYD3 (Homo sapiens (Human), UniProt Q9H7B4); assay: SMYD3 biochemical assay (SPA, 3H-SAM methylation of MEKK2 protein substrate); settings: read-out: SMYD3 Biochem IC50*
Procedure, shortened: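 Tritium incorporation into GST-MEKK2 is counted by scintillation proximity after citric acid bead capture. Native human SMYD3 is preincubated with test compound for 30 min at room temperature at pH 8.0 (Tris-Cl, TCEP, BSG, Tween 20) before 3H-SAM and substrate are added; cold SAM at 100 uM final stops turnover.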

SMYD3 [2] = target: T1, SMYD3; assay: SMYD3 cell assay (Trimethyl-MEKK2 In-Cell Western in 293T/17 cells); type: cell-based; settings: read-out: SMYD3 Cell IC50*
Procedure, shortened: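 In-Cell Western ratio of trimethyl-Lys260 MEKK2 to anti-flag signal; percent inhibition from DMSO and maximum-inhibition controls, IC50 by non-linear regression, triplicates.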

T1 sequence (Q9H7B4 whole entry): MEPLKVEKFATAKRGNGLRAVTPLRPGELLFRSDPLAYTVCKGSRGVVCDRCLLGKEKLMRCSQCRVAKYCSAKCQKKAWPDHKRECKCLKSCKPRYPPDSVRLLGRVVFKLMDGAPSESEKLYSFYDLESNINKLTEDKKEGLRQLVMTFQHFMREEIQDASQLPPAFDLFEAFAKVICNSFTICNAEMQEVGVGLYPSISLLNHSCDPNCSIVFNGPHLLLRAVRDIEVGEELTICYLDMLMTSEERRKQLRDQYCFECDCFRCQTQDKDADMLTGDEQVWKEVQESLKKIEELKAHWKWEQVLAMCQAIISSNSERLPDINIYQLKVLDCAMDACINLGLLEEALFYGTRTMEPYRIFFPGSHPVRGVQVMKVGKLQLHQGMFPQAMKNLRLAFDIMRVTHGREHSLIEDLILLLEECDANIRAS

| SMILES | IC50 (SMYD3 [1]) [nM] | IC50 (SMYD3 [2]) [nM] |
| --- | --- | --- |
| CCc1cc(C(=O)N[C@H]2C[C@H]3CC[C@@H](C2)N3S(=O)(=O)[C@H]2CC[C@H](NCCO)CC2)no1 [compound 788, 5-ethyl-N-((1R,3R,5S)-8-(((1r,4R)-4-((2-hydroxyethyl)amino)cyclohexyl)sulfonyl)-8-azabicyclo[3.2.1]octan-3-yl)isoxazole-3-carboxamide] | 1.42 | 30.8 |
| CCc1cc(C(=O)N[C@H]2C[C@H]3CC[C@@H](C2)N3S(=O)(=O)[C@H]2CC[C@H](N)CC2)no1 [compound 789, N-((1R,3R,5S)-8-(((1r,4R)-4-aminocyclohexyl)sulfonyl)-8-azabicyclo[3.2.1]octan-3-yl)-5-ethylisoxazole-3-carboxamide] | 1.59 | 31.9 |
| C[C@H]1CN(S(=O)(=O)[C@H]2CC[C@H](N)CC2)CC[C@H]1NC(=O)c1cc(C2CC2)on1 [compound 790, N-((3S,4R)-1-(((1r,4S)-4-aminocyclohexyl)sulfonyl)-3-methylpiperidin-4-yl)-5-cyclopropylisoxazole-3-carboxamide] | 1.81 | 56 |
| O=C(N[C@H]1C[C@H]2CC[C@@H](C1)N2S(=O)(=O)N1CCC(NCCc2ccccc2)CC1)c1cc(C2CC2)on1 [compound 791, 5-cyclopropyl-N-((1R,3r,5S)-8-((4-(phenethylamino)piperidin-1-yl)sulfonyl)-8-azabicyclo[3.2.1]octan-3-yl)isoxazole-3-carboxamide] | 1.82 | 40.4 |
| O=C(N[C@H]1C[C@H]2CC[C@@H](C1)N2S(=O)(=O)N1CCC(NCCO)CC1)c1cc(C2CC2)on1 [compound 792, 5-cyclopropyl-N-((1R,3r,5S)-8-((4-((2-hydroxyethyl)amino)piperidin-1-yl)sulfonyl)-8-azabicyclo[3.2.1]octan-3-yl)isoxazole-3-carboxamide] | 1.85 | 44.9 |
| CCc1cc(C(=O)N[C@H]2CCN(S(=O)(=O)N3CCC(N)CC3)[C@@H](C)C2)no1 [compound 793, N-((2S,4S)-1-((4-aminopiperidin-1-yl)sulfonyl)-2-methylpiperidin-4-yl)-5-ethylisoxazole-3-carboxamide] | 1.85 | 26.3 |
| O=C(N[C@H]1C[C@H]2CC[C@@H](C1)N2S(=O)(=O)N1CCC(NCCCC(F)(F)F)CC1)c1cc(C2CC2)on1 [compound 794, 5-cyclopropyl-N-((1R,3r,5S)-8-((4-((4,4,4-trifluorobutyl)amino)piperidin-1-yl)sulfonyl)-8-azabicyclo[3.2.1]octan-3-yl)isoxazole-3-carboxamide] | 1.87 | 34.7 |
| C[C@H]1C[C@@H](NC(=O)c2cc(C3CC3)on2)CCN1S(=O)(=O)CC[C@@H]1CCN(C)C1 [compound 795, 5-cyclopropyl-N-((2S,4S)-2-methyl-1-((2-((S)-1-methylpyrrolidin-3-yl)ethyl)sulfonyl)piperidin-4-yl)isoxazole-3-carboxamide] | 1.87 | 27.6 |
| CC1(N)CCN(S(=O)(=O)N2[C@@H]3CC[C@H]2C[C@@H](NC(=O)c2cc(C4CC4)on2)C3)CC1 [compound 796, N-((1R,3r,5S)-8-((4-amino-4-methylpiperidin-1-yl)sulfonyl)-8-azabicyclo[3.2.1]octan-3-yl)-5-cyclopropylisoxazole-3-carboxamide] | 1.9 | 40.7 |
| CCc1cc(C(=O)N[C@H]2C[C@H]3CC[C@@H](C2)N3S(=O)(=O)CC2CCN(C)CC2)no1 [compound 797, 5-ethyl-N-((1R,3r,5S)-8-(((1-methylpiperidin-4-yl)methyl)sulfonyl)-8-azabicyclo[3.2.1]octan-3-yl)isoxazole-3-carboxamide] | 1.9 | 42.7 |
| CN[C@H]1CC[C@@H](S(=O)(=O)N2[C@@H]3CC[C@H]2C[C@@H](NC(=O)c2cc(C4CC4)on2)C3)CC1 [compound 798, 5-cyclopropyl-N-((1R,3R,5S)-8-(((1s,4S)-4-(methylamino)cyclohexyl)sulfonyl)-8-azabicyclo[3.2.1]octan-3-yl)isoxazole-3-carboxamide] | 1.91 | 30.5 |
| CCc1cc(C(=O)N[C@H]2C[C@H]3CC[C@@H](C2)N3S(=O)(=O)N2CCC(N)CC2)no1 [compound 799, N-((1R,3r,5S)-8-((4-aminopiperidin-1-yl)sulfonyl)-8-azabicyclo[3.2.1]octan-3-yl)-5-ethylisoxazole-3-carboxamide] | 2.05 | 34.6 |
| CC1CN(S(=O)(=O)N2CC[C@H](NC(=O)c3cc(C4CC4)on3)C[C@@H]2C)CCC1N (stereo partly drawn) [compound 800, N-((2S,4S)-1-((4-amino-3-methylpiperidin-l-yl)sulfonyl)-2-methylpiperidin-4-yl)-5-cyclopropylisoxazole-3-carboxamide] | 2.18 | 39.7 |
| NC1C2CN(S(=O)(=O)N3[C@@H]4CC[C@H]3C[C@@H](NC(=O)c3cc(C5CC5)on3)C4)CC12 (stereo partly drawn) [compound 801, N-((1R,3r,5S)-8-((6-amino-3-azabicyclo[3.1.0]hexan-3-yl)sulfonyl)-8-azabicyclo[3.2.1]octan-3-yl)-5-cyclopropylisoxazole-3-carboxamide] | 2.19 | 27.7 |
| CNC1CCC(CS(=O)(=O)N2CC[C@H](NC(=O)c3cc(C4CC4)on3)C[C@@H]2C)C1 (stereo partly drawn) [compound 802, 5-cyclopropyl-N-((2S,4S)-2-methyl-1-(((3-(methylamino)cyclopentyl)methyl)sulfonyl)piperidin-4-yl)isoxazole-3-carboxamide] | 2.3 | 27 |
| CC1CC(N)CCN1S(=O)(=O)N1[C@@H]2CC[C@H]1C[C@@H](NC(=O)c1cc(C3CC3)on1)C2 (stereo partly drawn) [compound 803, N-((1R,3r,5S)-8-((4-amino-2-methylpiperidin-1-yl)sulfonyl)-8-azabicyclo[3.2.1]octan-3-yl)-5-cyclopropylisoxazole-3-carboxamide] | 2.31 | 59 |
| C[C@H]1C[C@@H](NC(=O)c2cc(C3CC3)on2)CCN1S(=O)(=O)N1CCC2(CCCN2)CC1 [compound 804, N-((2S,4S)-1-((1,8-diazaspiro[4.5]decan-8-yl)sulfonyl)-2-methylpiperidin-4-yl)-5-cyclopropylisoxazole-3-carboxamide] | 2.36 | 60.8 |
| CN(C)C1CCN(S(=O)(=O)N2[C@@H]3CC[C@H]2C[C@@H](NC(=O)c2cc(C4CC4)on2)C3)CC1 [compound 805, 5-cyclopropyl-N-((1R,3r,5S)-8-((4-(dimethylamino)piperidin-1-yl)sulfonyl)-8-azabicyclo[3.2.1]octan-3-yl)isoxazole-3-carboxamide] | 2.39 | 53.2 |
| CCC[C@H]1C[C@@H](NC(=O)c2cc(C3CC3)on2)CCN1S(=O)(=O)CCCN [compound 806, N-((2S,4S)-1-((3-aminopropyl)sulfonyl)-2-propylpiperidin-4-yl)-5-cyclopropylisoxazole-3-carboxamide] | 2.4 | 113 |
| CN(C)[C@H]1CC[C@H](S(=O)(=O)N2[C@@H]3CC[C@H]2C[C@@H](NC(=O)c2cc(C4CC4)on2)C3)CC1 [compound 807, 5-cyclopropyl-N-((1R,3R,5S)-8-(((1r,4R)-4-(dimethylamino)cyclohexyl)sulfonyl)-8-azabicyclo[3.2.1]octan-3-yl)isoxazole-3-carboxamide] | 2.44 | 85.7 |
| C[C@H]1C[C@@H](NC(=O)c2cc(C3CC3)on2)CCN1S(=O)(=O)N1CCC(NCCO)CC1 [compound 808, 5-cyclopropyl-N-((2S,4S)-1-((4-((2-hydroxyethyl)amino)piperidin-1-yl)sulfonyl)-2-methylpiperidin-4-yl)isoxazole-3-carboxamide] | 2.47 | 36.8 |
| CC(C)CN1CCC(CS(=O)(=O)N2[C@@H]3CC[C@H]2C[C@@H](NC(=O)c2cc(C4CC4)on2)C3)CC1 [compound 809, 5-cyclopropyl-N-((1R,3r,5S)-8-(((1-isobutylpiperidin-4-yl)methyl)sulfonyl)-8-azabicyclo[3.2.1]octan-3-yl)isoxazole-3-carboxamide] | 2.49 | 42.7 |
| O=C(N[C@H]1C[C@H]2CC[C@@H](C1)N2S(=O)(=O)N1CCC(NCc2ccccc2)CC1)c1cc(C2CC2)on1 [compound 810, N-((1R,3r,5S)-8-((4-(benzylamino)piperidin-1-yl)sulfonyl)-8-azabicyclo[3.2.1]octan-3-yl)-5-cyclopropylisoxazole-3-carboxamide] | 2.53 | 72.2 |
| CCc1cc(C(=O)N[C@H]2CCN(S(=O)(=O)c3ccc(C(C)(C)N)cc3)[C@@H](C)C2)no1 [compound 811, N-((2S,4S)-1-((4-(2-aminopropan-2-yl)phenyl)sulfonyl)-2-methylpiperidin-4-yl)-5-ethylisoxazole-3-carboxamide] | 2.58 | 33.6 |
| CNC1CCN(S(=O)(=O)N2[C@@H]3CC[C@H]2C[C@@H](NC(=O)c2cc(C4CC4)on2)C3)CC1 [compound 812, 5-cyclopropyl-N-((1R,3r,5S)-8-((4-(methylamino)piperidin-1-yl)sulfonyl)-8-azabicyclo[3.2.1]octan-3-yl)isoxazole-3-carboxamide] | 2.65 | 41.1 |
| C[C@H]1C[C@@H](NC(=O)c2cc(C3CC3)on2)CCN1S(=O)(=O)N1CCC2(CCN2)CC1 [compound 813, N-((2S,4S)-1-((1,7-diazaspiro[3.5]nonan-7-yl)sulfonyl)-2-methylpiperidin-4-yl)-5-cyclopropylisoxazole-3-carboxamide] | 2.73 | 35.7 |
| C[C@H]1C[C@@H](NC(=O)c2cc(C3CC3)on2)CCN1S(=O)(=O)CC[C@H]1CCN(C)C1 [compound 814, 5-cyclopropyl-N-((2S,4S)-2-methyl-1-((2-((R)-1-methylpyrrolidin-3-yl)ethyl)sulfonyl)piperidin-4-yl)isoxazole-3-carboxamide] | 2.77 | 44.2 |
